Reference: US9675595B2, “Synergistic combinations of PI3K- and MEK-inhibitors” (Novartis AG, priority 2011, dated 2017)
pIC50: −log10 of the molar value. Like-named read-outs stand apart in the source and are kept apart here. Values belong to the compound of their own block, whether it stands above or below them.

Assays:
Type in all cases: cell-based
SW1417 = assay: Cell viability (CellTiterGlo, 72 h), Example 1; conditions: Homo sapiens, single agent
From the text: (§1) The colorectal cancer cell lines SW1417, COLO 205, LS411N, HT-29, RKO, OUMS-23, SW620, LoVo, SW480, SW837, COLO-678, LS123-NCI—H747, HCT-15, HCT116, DLD-1, T84, SW948, LS180, GP2d, HuTu 80, CW-2, SW48, NCI—H716, C2Bbe1, SNU—C1 and KM12 are obtained from the American Type Culture Collection (ATCC) and maintained in their respective culture medium as specified by the provider. These colorectal cancer cell lines have the following mutation status:
(§2) For assessment of combination effects, cells are seeded into 384-well plates at 500 cells/well and incubated overnight. The contents of the compound master plates are pre-diluted with 1:200 (1 μL compound solution to 200 μL cell […] culture medium containing 10% fetal clf serum) before transferring 5 μL of this pre-dilution to the cell plates containing 20 μL cell culture medium, to achieve the targeted final compound concentrations as well as a vehicle (DMSO) concentration of 0.09%.
(§3) Effects of single agents as well as their checkerboard combinations on cell viability are assessed after 72 hours of incubation at 37° C./5% CO2 by quantification of cellular ATP levels (CellTiterGlo, Promega) using 25 μL reagent/well and n=2 repliate plates per condition. The number/viability of cells at the time of compound addition was likewise assessed and used to estimate the population doubling time of the particular cell line. Single agent IC50s are calculated using standard four-parametric curve fitting (SLFit, model 205). Potential synergistic interactions between compound combinations are assessed using the Excess Inhibition 2D matrix according to the Loewe additivity model and are reported as Synergy Score. In addition, compound combinations are assessed by combination index analysis derived from isobologram graphs at 50% inhibition, and are reported as best combination index (CI), which corresponds to the lowest value on the isobologram. All synergy calculations are performed using CHALICE software (Lehár et al, Nat Biotechnol. (July 2009), 27(4): 69:66).

SNU-C1 = assay: Cell viability (CellTiterGlo, 72 h), Example 1; conditions: Homo sapiens, single agent
From the text: as §1, §2, §3

CW-2 = assay: Cell viability (CellTiterGlo, 72 h), Example 1; conditions: Homo sapiens, single agent
From the text: as §1, §2, §3

LS123 = assay: Cell viability (CellTiterGlo, 72 h), Example 1; conditions: Homo sapiens, LS-123, single agent
From the text: as §1, §2, §3

T84 = assay: Cell viability (CellTiterGlo, 72 h), Example 1; conditions: Homo sapiens, duplicate data points and dose response display some scatter, single agent
From the text: as §1, §2, §3

HuTu 80 = assay: Cell viability (CellTiterGlo, 72 h), Example 1; conditions: Homo sapiens, HuTu80, single agent
From the text: as §1, §2, §3

HCT-15 = assay: Cell viability (CellTiterGlo, 72 h), Example 1; conditions: Homo sapiens, single agent
From the text: as §1, §2, §3

SW48 = assay: Cell viability (CellTiterGlo, 72 h), Example 1; conditions: Homo sapiens, single agent
From the text: as §1, §2, §3

[1] = tested on: colorectal cancer cell lines; assay: Cell viability (CellTiterGlo, 72 h), Example 1, whole panel; conditions: repeat experiments (*) excluded
From the text: as §1, §2
as §3, with “[…]). Interpretation of values for combination index and synergy score are provided below:” for “69:66).”
Pairwise multiple comparisons of the result groups are performed by one-way ANOVA (Neuman-Keuls method) using GraphPad Prism 5 (GraphPad Software Inc.). Results

[2] = tested on: CRC and NSCLC cell lines that carry KRAS mutations; assay: Cell proliferation assay (CellTiter-Glo, 72 hrs), dose matrix, Example 2, all six cell lines; conditions: in the combination dose matrix
Experimental: The cell lines used in this study were purchased from American Type Cell Collection, including non-small cell lung cancer cell lines NCI—H23 & NCI—H2122 (which carry both KRAS and LKB1 mutations), NCI—H358 (which carries KRAS mutation), NCI—H460 (which carries KRAS, LKB1 and PIK3CA mutations), and Colorectal Cancer cell line SW480 (which carries KRAS mutation), HCT-15 (which carries KRAS PIK3CA mutations). All the cell lines were cultured at 37° C. in a 5% CO2 incubator in RPMI 1640 (ATCC #30-2001) media complemented with 10% fetal bovine serum, 2 mmol/L glutamine and 1% sodium pyruvate.
Cell viability was determined by measuring cellular ATP content using the CellTiter-Glo® Luminescent Cell Viability Assay (Promega #G7573) according to manufacturer's protocol. Briefly, 500-900 cells/well were plated on clear-bottom 384-well black plates (Greiner#781091) in quadruplicates or duplicates with 30 ul/well growth media, cells were allowed to attach overnight and followed by 72 hrs of incubation with various concentration of drugs or drug combinations (10 ul/well), at the end of the drug treatment, 30 ul/well of the CellTiter-Glo regent were added to each well to lyse the cells, and luminescence signals were recorded on a Envision plate reader. […]

pIC50 (SW1417; read-out: Cmpd. A IC50): 5.11
pIC50 (SNU-C1; read-out: Cmpd. A IC50): 5.61
pIC50 (HCT-15; read-out: Cmpd. A IC50): 5.17
pIC50 (SW48; read-out: Cmpd. A IC50): 5.85
pIC50 ([1]; Mean over colorectal cell lines, read-out: Mean Cmpd. A IC50): 5.12
pIC50 ([1]; Median over colorectal cell lines, read-out: Median Cmpd. A IC50): 5.06
Compound: Cc1nc(NC(=O)N2CCC[C@H]2C(N)=O)sc1-c1ccnc(C(C)(C)C(F)(F)F)c1 [COMPOUND A, (S)-pyrrolidine-1,2-dicarboxylic acid 2-amide 1-({4-methyl-5-[2-(2,2,2-trifluoro-1,1-dimethyl-ethyl)-pyridin-4-yl]-thiazol-2-yl}-amide)]
pIC50 (CW-2; read-out: Cmpd. A IC50): < 4.97
pIC50 (LS123; read-out: Cmpd. A IC50): 5.14
pIC50 (T84; read-out: Cmpd. A IC50): 5.38
pIC50 (HuTu 80; read-out: Cmpd. A IC50): 5.05
doses at which synergistic regions are typically observed [2]: above 150 nM

pIC50 (SW1417; read-out: Cmpd. B IC50): 7.27
pIC50 (SNU-C1; read-out: Cmpd. B IC50): 7.82
pIC50 (HCT-15; read-out: Cmpd. B IC50): < 5.57
pIC50 (SW48; read-out: Cmpd. B IC50): 7.11
pIC50 ([1]; Mean over colorectal cell lines, read-out: Mean Cmpd. B IC50): 5.94
pIC50 ([1]; Median over colorectal cell lines, read-out: Median Cmpd. B IC50): 7.12
Compound: Cn1cnc2c(F)c(Nc3ccc(Br)cc3F)c(C(=O)NOCCO)cc21 [COMPOUND B, 6-(4-bromo-2-fluorophenylamino)-7-fluoro-3-methyl-3H-benzoimidazole-5-carboxylic acid (2-hydroxyethoxy)-amide]
pIC50 (CW-2; read-out: Cmpd. B IC50): < 5.57
pIC50 (LS123; read-out: Cmpd. B IC50): 5.64
pIC50 (T84; read-out: Cmpd. B IC50): 4.89
pIC50 (HuTu 80; read-out: Cmpd. B IC50): < 5.57
doses at which synergistic regions are typically observed [2]: ≥ 80 nM
